Measured values taken from patent US20120149691A1, “Pyrrolo [1,2-b] Pyridazine Derivatives as Janus Kinase Inhibitors” (BioCryst Pharmaceuticals, Inc., priority 2009, published 2012).

| Compound | melting point |
| --- | --- |
| N#Cc1cnn2cccc2c1NC1(c2ccc(Cl)cc2Cl)CC1 [Compound 49k, 4-(1-(2,4-dichlorophenyl)cyclopropylamino)pyrrolo[1,2-b]pyridazine-3-carbonitrile] | 207.7 °C |
| N#Cc1cnn2cccc2c1NC1CCCC1 [Compound 52b, 4-(cyclopentylamino)pyrrolo[1,2-b]pyridazine-3-carbonitrile] | 102.9 °C |
| Cc1nc(C(CC(C)C)Nc2c(C#N)cnn3cccc23)sc1C (stereo not shown) [Compound 49b, 4-(1-(4,5-Dimethylthiazol-2-yl)-3-methylbutylamino)pyrrolo[1,2-b]pyridazine-3-carbonitrile] | 137.9 °C |
| NC(=O)c1cnn2cccc2c1NC1CCC(O)CC1 (stereo not shown) [Compound 51i, 4-(4-hydroxycyclohexylamino)pyrrolo[1,2-b]pyridazine-3-carboxamide] | 192.2 °C |
| CC1CCCCC1Nc1c(C(=O)O)cnn2cccc12 (stereo not shown) [Compound 18e, 4-(2-methylcyclohexylamino)pyrrolo[1,2-b]pyridazine-3-carboxylic acid] | 195.1 °C |
| C[C@H]1CCCC[C@H]1Nc1c(C(N)=O)cnn2cccc12 [Compound 18g, 4-((1R,2S)-2-methylcyclohexylamino)pyrrolo[1,2-b]pyridazine-3-carboxamide] | 158.6 °C |
| NC(=O)c1cnn2cccc2c1Nc1ccccc1 [Compound 52f, 4-(phenylamino)pyrrolo[1,2-b]pyridazine-3-carboxamide] | 247.2 °C |
| N#Cc1cnn2cccc2c1Nc1ccccc1 [Compound 52e, 4-(phenylamino)pyrrolo[1,2-b]pyridazine-3-carbonitrile] | 163.5 °C |
| COc1ccccc1C(CNc1c(C#N)cnn2cccc12)N1CCOCC1 (stereo not shown) [Compound 50b, 4-(2-(2-methoxyphenyl)-2-morpholinoethylamino)pyrrolo[1,2-b]pyridazine-3-carbonitrile] | 156.9 °C |
| N#Cc1cnn2cccc2c1NCC1CCCO1 (stereo not shown) [Compound 51k, 4-((tetrahydrofuran-2-yl)methylamino)pyrrolo[1,2-b]pyridazine-3-carbonitrile] | 101.8 °C |
| C[C@@H]1CCCC[C@@H]1Nc1c(C(N)=O)cnn2cccc12 [Compound 18i, 4-((1S,2R)-2-methylcyclohexylamino)pyrrolo[1,2-b]pyridazine-3-carboxamide] | 154.7 °C |
| CN(C)C(CNc1c(C#N)cnn2cccc12)c1ccco1 (stereo not shown) [Compound 49h, 4-(2-(dimethylamino)-2-(furan-2-yl)ethylamino)pyrrolo[1,2-b]pyridazine-3-carbonitrile] | 106.9 °C |
| NC(=O)c1cnn2cccc2c1NC1CCCCCC1 [Compound 52i, 4-(cycloheptylamino)pyrrolo[1,2-b]pyridazine-3-carboxamide] | 279.2 °C |
| N#Cc1cnn2cccc2c1NC1CCCCCC1 [Compound 52h, 4-(cycloheptylamino)pyrrolo[1,2-b]pyridazine-3-carbonitrile] | 108 °C |
| NC(=O)c1cnn2cccc2c1NCC1CCCO1 (stereo not shown) [Compound 51m, 4-((tetrahydrofuran-2-yl)methylamino)pyrrolo[1,2-b]pyridazine-3-carboxamide] | 120 °C |
| CC(C)(CNc1c(C#N)cnn2cccc12)N1CCOCC1 [Compound 49e, 4-(2-methyl-2-morpholinopropylamino)pyrrolo[1,2-b]pyridazine-3-carbonitrile] | 178.8 °C |
